Earlier results on two molecules are cited in US10864174B2, “Method maintaining iron homeostasis with shogaols” (priority 2016, dated 2020).

In general, IC50 refers to the concentration that inhibits the measured activity by half.

The subject of data set [1] is H1299 human lung cancer cells. The following applies: one value given for both cell lines, read-out: IC50, growth inhibition.
Data set [2] has as its system HCT-116 human colon cancer cells. The conditions noted are these: one value given for both cell lines, read-out: IC50, growth inhibition.
The subject of a further data set is arachidonic acid pathway. The conditions noted are these: compared with [6]-gingerol.
Data set [3] has as its system nitric oxide (NO) synthesis. The conditions noted are these: compared with [6]-gingerol.

For `CCCCC[C@H](O)CC(=O)CCc1ccc(O)c(OC)c1` [[6]-gingerol, reference compound], the IC50 in data set [1] and in data set [2] was approximately 150 µM in each case.
In the case of `CCCCC/C=C/C(=O)CCc1ccc(O)c(OC)c1` [[6]-shogaol], the IC50 in data set [1] and in data set [2] was approximately 8 µM throughout. Moreover, in the data set on arachidonic acid pathway, the “inhibitory effects on the arachidonic acid pathway” value is reported as “much stronger inhibitory effects”. Moreover, the “inhibitory effects on nitric oxide (NO) synthesis” value in data set [3] is on record as “much stronger inhibitory effects”.
